Measured values as given in patent publication US5407932A, “Quinolone derivatives and antibacterial agents containing the same” (Wakunaga Seiyaku Kabushiki Kaisha, priority 1989, dated 1995).
Values after ≈ are worked out from the molar mass of the structure shown.

How the values were obtained:
[1] = Partition coefficient, phosphate buffer/n-octanol; type: physicochemical; conditions: n-octanol/50 mm phosphate buffer; 50 mM phosphate buffer (pH 7.4, μ=0.15)/n-octanol
Description: Following the method proposed by Akira Tsuji et al. in Antimicrob. Agents Chemother., 32, 190-194 (1988), 50 mM phosphate buffer (pH 7.4, μ=0.15)/n-octanol partition coefficients were measured.

[2] = system: mice; experiment: Interaction with fenbufen and toxicological study (coadministration test with fenbufen); type: in vivo
Description: Fenbufen and the quinolone compounds were each diluted with a solution of 0.5% methylcellulose.
A dose of 200 mg/kg of fenbufen was administered by oral route to groups of 10 mice (female, ICR, 18-23 g) 90 minutes before administration of the quinolone compounds by oral route, at a dose of 500 mg/kg. […] Following the 24 hours number of survival animals was noted.

[3] = system: P. aeruginosa (IFO 3445); experiment: Minimum inhibitory concentration, standard method of the Japan Society of Chemotherapy; type: cell-based; conditions: Pseudomonas aeruginosa, IFO3445
Description: (§1) With respect to certain representative compounds among the compounds [I] of the present invention, their minimum inhibitory concentrations (MIC; μg/ml) were measured in accordance with the standard method established by the Japan Society of Chemotherapy [CHEMOTHERAPY, 29(1), 76-79 (1981)]. The results are summarized in Table 1, in which the compound numbers are as shown in examples.

[4] = system: E. coli NIH JC-2 (IFO 12734); experiment: as above; type: cell-based; conditions: Escherichia coli, IFO12734
Description: as §1

[5] = system: S. aureus 209 P (IFO 12732); experiment: as above; type: cell-based; conditions: Staphylococcus aureus, IFO12732
Description: as §1

MIC [3]	MIC [4]	MIC [5]	Compound	logD [1]	Induction of convulsion, number of positive mice ([2]; mouse, in vivo)	Mortality, number of dead mice ([2]; mouse, in vivo)	Mortality, number of dead mice ([2]; quinolone 500 mg/kg oral, 90 min after fenbufen 200 mg/kg oral, 24 hours)	Induction of convulsion, number of positive mice ([2]; quinolone 500 mg/kg oral, 90 min after fenbufen 200 mg/kg oral, during two hours)
1.56 µg/mL (≈ 4.13 µM)	0.39 µg/mL (≈ 1.03 µM)	0.2 µg/mL (≈ 0.53 µM)	COc1c(N2CCC(N)C2)c(F)cc2c(=O)c(C(=O)O)cn(C3COC3)c12 (centres unmarked) [Compound 76, 7-(3-Aminopyrrolidin-1-yl)-6-fluoro-8-methoxy-1-(oxetan-3-yl)-1,4-dihydro-4-oxoquinoline-3-carboxylic acid]					
3.13 µg/mL (≈ 7.92 µM)	0.78 µg/mL (≈ 1.97 µM)	1.56 µg/mL (≈ 3.95 µM)	CO[C@H]1CN(c2c(F)cc3c(=O)c(C(=O)O)cn(C4COC4)c3c2F)C[C@H]1N (relative stereo) [Compound 89]					
3.13 µg/mL (≈ 7.41 µM)	0.2 µg/mL (≈ 0.473 µM)	0.1 µg/mL (≈ 0.237 µM)	CCNCC1CCN(c2c(F)c(N)c3c(=O)c(C(=O)O)cn(C4COC4)c3c2F)C1 (centres unmarked) [Compound 53]					
1.56 µg/mL (≈ 3.82 µM)	0.2 µg/mL (≈ 0.49 µM)	0.78 µg/mL (≈ 1.91 µM)	CN[C@@H]1CN(c2c(F)c(N)c3c(=O)c(C(=O)O)cn(C4COC4)c3c2F)C[C@@H]1C (relative stereo) [Compound 94]					
25 µg/mL (≈ 59.6 µM)	1.56 µg/mL (≈ 3.72 µM)	0.1 µg/mL (≈ 0.238 µM)	CCNCC1CCN(c2c(F)cc3c(=O)c(C(=O)O)cn(C4COC4)c3c2OC)C1 (centres unmarked) [Compound 79]					
3.13 µg/mL (≈ 7.96 µM)	0.39 µg/mL (≈ 0.991 µM)	1.56 µg/mL (≈ 3.97 µM)	CCNC1CCN(c2c(F)cc3c(=O)c(C(=O)O)cn(C4COC4)c3c2F)C1 (centres unmarked) [Compound 45]					
0.78 µg/mL (≈ 1.84 µM)	0.1 µg/mL (≈ 0.236 µM)	0.39 µg/mL (≈ 0.921 µM)	CN(C)NC1CCN(c2c(F)c(N)c3c(=O)c(C(=O)O)cn(C4COC4)c3c2F)C1 (centres unmarked) [Compound 96]					
6.25 µg/mL (≈ 16.6 µM)	0.39 µg/mL (≈ 1.04 µM)	1.56 µg/mL (≈ 4.16 µM)	CN(C)C1CCN(c2cc3c(cc2F)c(=O)c(C(=O)O)cn3C2COC2)C1 (centres unmarked) [Compound 39]					
6.25 µg/mL (≈ 18.8 µM)	0.78 µg/mL (≈ 2.34 µM)	12.5 µg/mL (≈ 37.5 µM)	NC1CN(c2cc3c(cc2F)c(=O)c(C(=O)O)cn3C2COC2)C1 [Compound 41]					
1.56 µg/mL (≈ 4.14 µM)	0.39 µg/mL (≈ 1.04 µM)	3.13 µg/mL (≈ 8.32 µM)	CCNC1CCN(c2nc3c(cc2F)c(=O)c(C(=O)O)cn3C2COC2)C1 (centres unmarked) [Compound 69]					
3.13 µg/mL (≈ 8.54 µM)	0.78 µg/mL (≈ 2.13 µM)	1.56 µg/mL (≈ 4.26 µM)	Nc1c(F)c(N2CC(N)C2)c(F)c2c1c(=O)c(C(=O)O)cn2C1COC1 [Compound 49]					
3.13 µg/mL (≈ 8.21 µM)	0.39 µg/mL (≈ 1.02 µM)	0.39 µg/mL (≈ 1.02 µM)	Nc1c(F)c(N2CCC(O)C2)c(F)c2c1c(=O)c(C(=O)O)cn2C1COC1 (centres unmarked) [Compound 59]					
3.13 µg/mL (≈ 7.66 µM)	0.78 µg/mL (≈ 1.91 µM)	0.1 µg/mL (≈ 0.245 µM)	CNCC1CCN(c2c(F)c(N)c3c(=O)c(C(=O)O)cn(C4COC4)c3c2F)C1 (centres unmarked) [Compound 52]					
0.39 µg/mL (≈ 1.12 µM)	0.2 µg/mL (≈ 0.574 µM)	1.56 µg/mL (≈ 4.48 µM)	NC1CCN(c2nc3c(cc2F)c(=O)c(C(=O)O)cn3C2COC2)C1 (centres unmarked) [Compound 65]					
0.78 µg/mL (≈ 2.06 µM)	0.1 µg/mL (≈ 0.264 µM)	0.39 µg/mL (≈ 1.03 µM)	C[C@H]1CN(c2c(F)cc3c(=O)c(C(=O)O)cn(C4COC4)c3c2F)C[C@H]1N (relative stereo) [Compound 102]					
1.56 µg/mL (≈ 3.97 µM)	0.2 µg/mL (≈ 0.508 µM)	0.78 µg/mL (≈ 1.98 µM)	CN[C@@H]1CN(c2c(F)cc3c(=O)c(C(=O)O)cn(C4COC4)c3c2F)C[C@H]1C (relative stereo) [Compound 91]					
1.56 µg/mL (≈ 3.96 µM)	0.39 µg/mL (≈ 0.989 µM)	0.78 µg/mL (≈ 1.98 µM)	CNC1CCN(c2c(F)c(N)c3c(=O)c(C(=O)O)cn(C4COC4)c3c2F)C1 (centres unmarked) [Compound 50]					
3.13 µg/mL (≈ 7.66 µM)	0.78 µg/mL (≈ 1.91 µM)	1.56 µg/mL (≈ 3.82 µM)	CCNC1CCN(c2c(F)c(N)c3c(=O)c(C(=O)O)cn(C4COC4)c3c2F)C1 (centres unmarked) [Compound 51]					
0.78 µg/mL (≈ 1.98 µM)	0.1 µg/mL (≈ 0.254 µM)	0.2 µg/mL (≈ 0.507 µM)	C[C@@H]1CN(c2c(F)c(N)c3c(=O)c(C(=O)O)cn(C4COC4)c3c2F)C[C@H]1N (relative stereo) [Compound 101]					
12.5 µg/mL (≈ 30.8 µM)	1.56 µg/mL (≈ 3.85 µM)	0.78 µg/mL (≈ 1.92 µM)	CCNC1CCN(c2c(F)cc3c(=O)c(C(=O)O)cn(C4COC4)c3c2OC)C1 (centres unmarked) [Compound 82]					
3.13 µg/mL (≈ 8.66 µM)	0.2 µg/mL (≈ 0.553 µM)	1.56 µg/mL (≈ 4.32 µM)	CN1CCN(c2cc3c(cc2F)c(=O)c(C(=O)O)cn3C2COC2)CC1 [Compound 35, 6-Fluoro-7-(4-methylpiperazin-1-yl)-1-(oxetan-3-yl)-1,4-dihydro-4-oxoquinoline-3-carboxylic acid]					
6.25 µg/mL (≈ 15.8 µM)	1.56 µg/mL (≈ 3.95 µM)	3.13 µg/mL (≈ 7.92 µM)	CO[C@@H]1CN(c2c(F)cc3c(=O)c(C(=O)O)cn(C4COC4)c3c2F)C[C@H]1N (relative stereo) [Compound 85]					

The next lines start with the molecule.

Compound	MIC [3]	MIC [4]	MIC [5]	logD [1]	Induction of convulsion, number of positive mice ([2]; mouse, in vivo)	Mortality, number of dead mice ([2]; mouse, in vivo)	Mortality, number of dead mice ([2]; quinolone 500 mg/kg oral, 90 min after fenbufen 200 mg/kg oral, 24 hours)	Induction of convulsion, number of positive mice ([2]; quinolone 500 mg/kg oral, 90 min after fenbufen 200 mg/kg oral, during two hours)
C[C@H]1CN(c2c(F)c(N)c3c(=O)c(C(=O)O)cn(C4COC4)c3c2F)C[C@H]1N (single isomer, unassigned) [Compound 113, 5-Amino-7-{(-)-cis-3-amino-4-methylpyrrolidin-1-yl}-6,8-difluoro-1-(oxetan-3-yl)-1,4-dihydro-4-oxoquinoline-3-carboxylic acid]				-0.529				
CCn1cc(C(=O)O)c(=O)c2cc(F)c(N3CCNCC3)nc21 [Enoxacin, enoxacin, reference compound]					10/10	10/10		
CN1CCN(c2c(F)cc3c(=O)c(C(=O)O)cn(C4COC4)c3c2F)CC1 [Compound 11]	1.56 µg/mL (≈ 4.11 µM)	0.2 µg/mL (≈ 0.527 µM)	1.56 µg/mL (≈ 4.11 µM)					
O=C(O)c1cn(C2COC2)c2c(F)c(N3Cc4ccccc4C3)c(F)cc2c1=O [Compound 9]	3.13 µg/mL (≈ 7.86 µM)	0.39 µg/mL (≈ 0.979 µM)	0.2 µg/mL (≈ 0.502 µM)					
Nc1c(F)c(N2CCC(N)C2)c(F)c2c1c(=O)c(C(=O)O)cn2C1COC1 (centres unmarked) [Compound 31]	0.78 µg/mL (≈ 2.05 µM)	0.2 µg/mL (≈ 0.526 µM)	0.39 µg/mL (≈ 1.03 µM)					
Nc1c(F)c(N2Cc3ccccc3C2)c(F)c2c1c(=O)c(C(=O)O)cn2C1COC1 [Compound 30]	3.13 µg/mL (≈ 7.57 µM)	0.78 µg/mL (≈ 1.89 µM)	0.2 µg/mL (≈ 0.484 µM)					
O=C(O)c1cn(C2COC2)c2c(F)c(N3CCSCC3)c(F)cc2c1=O [Compound 7]	3.13 µg/mL (≈ 8.19 µM)	0.78 µg/mL (≈ 2.04 µM)	0.39 µg/mL (≈ 1.02 µM)					
NCC1CCN(c2c(F)c(N)c3c(=O)c(C(=O)O)cn(C4COC4)c3c2F)C1 (centres unmarked) [Compound 32]	3.13 µg/mL (≈ 7.94 µM)	0.78 µg/mL (≈ 1.98 µM)	0.1 µg/mL (≈ 0.254 µM)					
Nc1c(F)c(N2CCNCC2)c(F)c2c1c(=O)c(C(=O)O)cn2C1COC1 [Compound 55]	0.78 µg/mL (≈ 2.05 µM)	0.39 µg/mL (≈ 1.03 µM)	0.78 µg/mL (≈ 2.05 µM)					
O=C(O)c1cn(C2COC2)c2c(F)c(N3CC=CC3)c(F)cc2c1=O [Compound 5]	6.25 µg/mL (≈ 17.9 µM)	0.39 µg/mL (≈ 1.12 µM)	0.39 µg/mL (≈ 1.12 µM)					
COc1c(N2CCNCC2)c(F)cc2c(=O)c(C(=O)O)cn(C3COC3)c12 [Compound 81]	3.13 µg/mL (≈ 8.29 µM)	0.78 µg/mL (≈ 2.07 µM)	0.78 µg/mL (≈ 2.07 µM)					
O=C(O)c1cn(C2COC2)c2c(F)c(N3CC(O)C3)c(F)cc2c1=O [Compound 17]	6.25 µg/mL (≈ 17.7 µM)	0.78 µg/mL (≈ 2.21 µM)	3.13 µg/mL (≈ 8.88 µM)					
CC1CN(c2c(F)cc3c(=O)c(C(=O)O)cn(C4COC4)c3c2F)CC(C)N1 (centres unmarked) [Compound 14]	3.13 µg/mL (≈ 7.96 µM)	0.2 µg/mL (≈ 0.508 µM)	3.13 µg/mL (≈ 7.96 µM)					
CN1CCN(c2c(F)c(N)c3c(=O)c(C(=O)O)cn(C4COC4)c3c2F)CC1 [Compound 29]	0.78 µg/mL (≈ 1.98 µM)	0.1 µg/mL (≈ 0.254 µM)	0.78 µg/mL (≈ 1.98 µM)	-0.333	0/10	0/10		
C[C@H]1CN(c2c(F)c(N)c3c(=O)c(C(=O)O)cn(C4COC4)c3c2F)C[C@H]1N.O=S(=O)(O)O (single isomer, unassigned) [Compound 117, 5-Amino-7-{(-)-cis-3-amino-4-methylpyrrolidin-1-yl}-6,8-difluoro-1-(oxetan-3-yl) -1,4-dihydro-4-oxoquinoline-3-carboxylic acid sulfuric acid salt]							0/10	0/10
O=C(O)c1cn(C2COC2)c2c(F)c(N3CCOCC3)c(F)cc2c1=O [Compound 6]	6.25 µg/mL (≈ 17.1 µM)	0.78 µg/mL (≈ 2.13 µM)	0.78 µg/mL (≈ 2.13 µM)					
O=C(O)c1cn(C2COC2)c2c(F)c(N3CCC(O)CC3)c(F)cc2c1=O [Compound 15]	6.25 µg/mL (≈ 16.4 µM)	0.78 µg/mL (≈ 2.05 µM)	0.39 µg/mL (≈ 1.03 µM)					
